This note sets out measurements from US8637050B2, “Peptide vaccines against group A streptococci” (The United States of America, as represented by the …, priority 2001, dated 2014).

For this experiment, the system named is rabbit sera prepared against whole M protein. Nature of the experiment: ELISA: peptide recognition by anti-M protein rabbit sera. It counts as binding. Here is the method: Overlapping peptides representing each M type were assessed for their immunogenicity using ELISA and dot-immunoblot.
Levels of anti-M protein antibodies in mouse sera were determined by an enzyme-linked immunosorbent assay (ELISA) using either synthetic peptides or whole M protein as antigen. Microtiter plates (DYNEX Immulon 2 HB) were coated with 10 μg/ml antigen in 10 mM phosphate-buffered saline (PBS) at 4° C. overnight. Plates were rinsed three times with wash buffer (0.05% Tween 20 in 10 mM PBS, pH 7.2) and blocked with 1% BSA in PBS for one hour at 37° C. The appropriate test sera were applied at a starting dilution of 1:1000 and serially diluted two fold down the plate in PBS. Plates were incubated at 37° C. for 30 minutes and subsequently rinsed three times. Goat anti-rabbit or goat anti-mouse Ig-peroxidase conjugate diluted 1:10,000 in PBS was added to all wells and incubated for two hours at 37° C. Plates were rinsed three times with wash buffer and freshly prepared TMB peroxidase (Kirkegaard and Perry Laboratories) was added. Reactions were quenched with 0.18 M H2SO4 after 30 minutes at room temperature and OD450 was measured with a Labsystems Multiskan plate reader using Ascent software. ELISA titers are expressed as the reciprocal of the last dilution which gave a reading OD450>0.10.
The immunoreactivity of several synthetic peptides was determined by ELISA using rabbit sera prepared against whole M protein. The synthetic peptides are representative of relatively small portions of the M protein N-terminus; therefore, it was advantageous to determine if the epitopes contained within particular peptides were immunoreactive with sera prepared against whole M protein. It was shown that the whole anti-M protein rabbit sera of the respective serotypes could bind to each of the synthetic peptides within that serotype. However, some peptides were more highly immunoreactive than others, thus being better suited for use in the animal studies.
In general terms: An ELISA detects its analyte on a solid surface through an enzyme-linked reagent.

On to CRRERDNYLNYLYEKEELEKK [Peptide M59-4], for which the “immunoreactivity by ELISA using rabbit sera prepared against whole M protein” value (“immunoreactivity by ELISA” below) was “confirmed”.
As to CKKEATKLSEAELYNKIQELEE [st2967-3], the “immunoreactivity by ELISA” value is “confirmed”.
Regarding CELHDKIKNLEEEKAELFEKLD [Peptide M2-3], the “immunoreactivity by ELISA” value is reported as “confirmed”.
The same measure for CDVLNNTPHNQLRDAYAGAFRR [Peptide M41-4]: “confirmed”; for CQLYTKHIYTKHNSNYQQYNAQ [Peptide M3-10]: “confirmed”; for CKENEELKVEREKYLSYADDK [Peptide M4-3]: “confirmed”.
Turning to CDSDNINRSVSVKDNEKELHNK [Peptide M89-1], the “immunoreactivity by ELISA” value is recorded as “confirmed”.
The same measure for CRGTVENPDKARELLNKYDVEN [Peptide M6-2]: “confirmed”; for CDSAWNWPKEYNALLKENEEL [Peptide M4-2]: “confirmed”.
Under CSVKDNEKELHNKIADLEEER [Peptide M89-3] stands “confirmed”; under CKKEAKLSEAELHDKIKNLEEEK [Peptide M2-2], “confirmed”; under CSDASLHNRITDLEEEREKLLNK [Peptide M77-2], “confirmed”.
The same measure for CESLRREKDRYLYEKEELEKK [Peptide M94-3]: “confirmed”; for CRATADNKDELIKRANGYEIQ [Peptide M18-4]: “confirmed”; for CELPYEARYKAWKSENDELREN [Peptide M75-2]: “confirmed”.
Regarding CKAKELEKQVEEYKKNYETLEK [Peptide M58-3], the “immunoreactivity by ELISA” value was “confirmed”.
Consider CTEVKAAGQSAPKGTNVSADL [Peptide M11-4], for which the “immunoreactivity by ELISA” value is “confirmed”.
The same measure for CKSTETSANGADKLADAYNTL [Peptide M28-2]: “confirmed”.
The same measure for CTVTRSTINDPQRAKEALDKYE [Peptide M5-8]: “confirmed”; for CIRNIRLRHENKDLKARLENA [Peptide M1-5]: “confirmed”.
Turning to CEKLREELQQYYALSDAKEEE [Peptide M22-6], the “immunoreactivity by ELISA” value is reported as “confirmed”.
Under CKDELIKRKELTIIEIQNHQL [Peptide M18-5] stands “confirmed”.
With CELFEKLDKVEEEHKKVEEEHKK [Peptide M2-4], the “immunoreactivity by ELISA” value is listed as “confirmed”.
For CKFERLKQRSELYLHQYYDNK [Peptide M12-4], the “immunoreactivity by ELISA” value is on record as “confirmed”.
CNSKNPVPVKKEAKLSEAELHDK [Peptide M2-1]: the “immunoreactivity by ELISA” value is reported as “confirmed”.
As to CNSMLQANNDKLTTENKNLTD [Peptide M6-5], the “immunoreactivity by ELISA” value was “confirmed”.
With CLRQKEENDKLKLEKKGLETE [Peptide M43-4], the “immunoreactivity by ELISA” value is “confirmed”.
Regarding CTVTRGTINDPQRAKEVIDKYE [Peptide M5-7], the “immunoreactivity by ELISA” value is given as “confirmed”.
As to CQHKNNALTSENESLRREKDR [Peptide M94-2], the “immunoreactivity by ELISA” value is “confirmed”.
The same measure for CQELEEGKAELFDKLEKVEEE [Peptide M73-6]: “confirmed”.
For the sequence CNENKSLRRERDNYLNYLYEK [Peptide M59-3], the “immunoreactivity by ELISA” value was “confirmed”.
Under CNTLNTLTDENEKLREELQQ [Peptide M22-4] stands “confirmed”.
The same measure for CDLLAKHGELLSEYDALKEKQDK [Peptide M92-4]: “confirmed”.
The same measure for CLAQVTQLYTKHNSNYQQYNA [Peptide M3-7]: “confirmed”; for CESKLINTLTDENEKLREELQQ [Peptide M22-3]: “confirmed”; for CDPQRAKEALDKYELENHDLK [Peptide M5-2]: “confirmed”.
Consider CRVPGTLWLRQKEENDKLKLEK [Peptide M43-3], for which the “immunoreactivity by ELISA” value is “confirmed”.
Under CAEIKKPQADSAWNWPKEYNA [Peptide M4-1] stands “confirmed”; under CQRAKAALDKYELENHDLKTKN [Peptide M5-4], “confirmed”.
The same measure for CLDQVTQLYTKHNSNYQQYSA [Peptide M3-5]: “confirmed”; for CRLAQAQEEALRDVLNNTPHN [Peptide M41-2]: “confirmed”.
Consider CAELYNKIQELEEGKAELFDK [st2967-6], for which the “immunoreactivity by ELISA” value is on record as “confirmed”.
Under CTQLYTKHNSNYQQYNAQAGR [Peptide M3-11] stands “confirmed”; under CIRLRHHENKDLKARLENAMEV [Peptide M1-8], “confirmed”.
For CDSSRDSSREVTNELTASMWK [Peptide M58-5], the “immunoreactivity by ELISA” value is “confirmed”.
The same measure for CQAQEEALRDVLNNTPHNQLRD [Peptide M41-3]: “confirmed”; for CENPDKARELLNKYDVENSMLQ [Peptide M6-3]: “confirmed”; for CEEASNNGQLTLQHKNNALTSE [Peptide M94-1]: “confirmed”.
On to CDKLADAYNTLLTEHEKLRDE [Peptide M28-3], for which the “immunoreactivity by ELISA” value was “confirmed”.
Under CQLRDPYAGAFRRNNELEKIIQE [Peptide M41-5] stands “confirmed”; under CLDQVTQLYTKHNSNYQQYNA [Peptide M3-3], “confirmed”.
Under CLNQVTQLYTKHNSNYQQYNA [Peptide M3-6] stands “confirmed”; under CDLEEERGKLLNKLDKVEEEHK [Peptide M77-4], “confirmed”; under CTEHEKLRDEYYTLIDAKLEEK [Peptide M28-4], “confirmed”.
As to CESSNISQESKLINTLTDENEK [Peptide M22-2], the “immunoreactivity by ELISA” value was “confirmed”.
Under CEQAKNNNGELTLQQKYDALT [Peptide M59-1] stands “confirmed”; under CNSKNPAPAPAVPVKKEATKL [st2967-4], “confirmed”; under CEEHPDVVAARESVLNNVR [Peptide M43-1], “confirmed”.
Turning to “CDLEEEREKLLNKLDKVEEEHKKD [Peptide M77-3]”, the “immunoreactivity by ELISA” value is “confirmed”.
Under CHEKVTQAREAVIREMQQRGT [Peptide M33-2] stands “confirmed”.
Turning to CRREEKDRYLYEKEELEKKNK [Peptide M94-4], the “immunoreactivity by ELISA” value was “confirmed”.
Under CNSKNPAPAVPVKKEATKLSE [st2967-5] stands “confirmed”.
The same measure for CDAEQNRANELEKKLSGYEKD [Peptide M82-4]: “confirmed”.
On to CKNDKLSSENEGLKAGLQEKE [Peptide M101-5], for which the “immunoreactivity by ELISA” value was “confirmed”.
Under CTVTRGTVNDPQRAKETLDKYE [Peptide M5-6] stands “confirmed”; under CDSSREVTNELTASMWKAQAD [Peptide M58-1], “confirmed”; under CHEREKNDKLSSENEGLK [Peptide M101-3], “confirmed”.
The same measure for CEGNARLAQAQEEALRDVLNN [Peptide M41-1]: “confirmed”; for CAESPKSTETSANGADKLAD [Peptide M28-1]: “confirmed”.
As to CEAGVSKFWKSKFDAEQNRANE [Peptide M82-3], the “immunoreactivity by ELISA” value is recorded as “confirmed”.
